IC50 data for 4 molecules are collected here from patent publication US4621083A, “PAF-antagonistic diazepines” (Boehringer Ingelheim KG, priority 1984, dated 1986).

As a reminder, the IC50 is the point on the concentration scale where inhibition reaches its midpoint.

For this assay, the system named is PAF-induced aggregation of human thrombocytes. Nature of the assay: Inhibition of PAF-induced blood platelet aggregation in vitro. The format is cell-based. The settings on record: Homo sapiens, read-out: PAF-Antag. IC50. How it is done:
1. Inhibition of blood platelet aggregation in vitro
The PAF-induced aggregation of human thrombocytes in vitro is used to determine PAF-antagonistic activity. To obtain thrombocyte-rich plasma (TRP), blood is taken from an uncongested vein using a plastic syringe containing 3.8% sodium citrate solution. The ratio of sodium citrate solution to blood is 1:9. After careful mixing the citrate blood is centrifuged for 20 minutes at 150 g (1200 rpm). The thrombocyte aggregation is measured using the method devised by Born and Cross (G. V. R. Born and M. J. Cross, J. Physiol. 168, 178 (1963)), by adding an aggregation initiator (PAF) to the TRP with constant stirring.
The test substance is added 2 to 3 minutes before aggregation is initiated in a volume of 10 ul. Either distilled water, ethanol and/or dimethylsulphoxide (each in suitable concentrations) can be used as solvent.
Control mixtures contain corresponding volumes of these solvents. After the initial absorption has been recorded (2 to 3 minutes) aggregation is induced with PAF (5×10^-8 M).
The maximum of the first aggregation wave is used to assess the effects of the substance. The PAF-induced maximum absorption rate (=maximum aggregation×100%) is tested at the same time in a parallel mixture (=control mixture in one of the channels of the two-channel aggregometer) as each test mixture (second channel) and is used as a 100% value.
The aggregation value attained under the effect of the test substance is given as a percentage of the control value, i.e. less than 100% in the case of an inhibition of aggregation and over 100% in the case of an increase.
Each test substance is investigated at concentrations of from 10^-3 to 10^-8 M with a random sampling of n=4 with regard to an inhibitory effect on the PAF-induced thrombocyte aggregation. Then a concentration-activity curve is drawn up using 3 concentrations and the IC50 is determined (concentration giving a 50% inhibition of aggregation).
As to `Cc1nnc2n1-c1sc(Br)cc1C(c1ccccc1Cl)N(CCO)C2` (stereo not shown) [compound 94], the half-maximal inhibitory concentration (IC50) is 11 µM.
The result for `Cc1nnc2n1-c1sc3c(c1C(c1ccccc1Cl)=NC2)CCNC3` [compound 45] reads below 10 µM; that for `Cc1nnc2n1-c1c(nnn1C)C(c1ccccc1Cl)=NC2` [compound 29], 950 µM; that for `CCC1NC(c2ccccc2Cl)c2cc(Br)sc2-n2c(C)nnc21` (stereo not shown) [compound 97], below 100 µM.
